Tests used:
[1] = molecular target: His-tagged KRAS G12D protein (Homo sapiens, UniProt P01116, G12D); assay: KRAS G12D TR-FRET Assay; assay type: binding
[2] = molecular target: GDP-bound KRAS protein (aa 1-169), containing both G12D and C118A amino acid substitutions (Homo sapiens, UniProt P01116, C118A/G12D); assay: KRAS G12D Coupled Nucleotide Exchange Assay; assay type: biochemical; settings: 2 h compound pre-incubation
Description: Following compound pre-incubation, purified SOS protein (aa 564-1049) and GTP (Roche 10106399001) were added to the assay wells and incubated for an additional 30 min. […] The assay plates were then read on a PerkinElmer EnVision Multilabel Reader, using AlphaScreen® technology, and data were analyzed using a 4-parameter logistic model to calculate IC50 values.

[3] = test system: Phosphorylation of ERK1/2 in A-427 cells; assay: Phospho-ERK1/2 MSD Assay (A-427 cells); assay type: cell-based; settings: Homo sapiens, A-427, 2 h, 2 h treatment, read-out: p-ERK (A427 cells) IC50
How it was run: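 ERK1/2 phosphorylation measured by Meso Scale whole-cell lysate assay after A-427 cells were exposed to a titration of compound for 2 h at 37 °C.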

[4] = test system: Phosphorylation of ERK1/2 in AsPC-1 cells; assay: Phospho-ERK1/2 MSD Assay (AsPC-1 cells); assay type: cell-based; settings: Homo sapiens, ASPC1, 2 h, 2 hours treatment, read-out: p-ERK (AsPC-1 cells) IC50
How it was run: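 Read-out: MSD electrochemiluminescent detection of phosphorylated ERK1/2 in whole-cell lysates, fitted to a 4-parameter logistic curve for IC50. Prior to lysis, AsPC-1 cells (25,000 per well) received a 2 h compound dose-response at 37 °C.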

Chain of His-tagged KRAS G12D protein (P01116 1-188 isoform P01116-2 G12D): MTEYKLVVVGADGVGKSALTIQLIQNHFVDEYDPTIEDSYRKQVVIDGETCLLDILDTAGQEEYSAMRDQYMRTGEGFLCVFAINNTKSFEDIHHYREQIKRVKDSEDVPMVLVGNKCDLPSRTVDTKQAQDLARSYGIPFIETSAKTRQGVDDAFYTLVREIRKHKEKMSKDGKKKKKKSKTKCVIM
Chain of GDP-bound KRAS protein (aa 1-169), containing both G12D and C118A amino acid substitutions (P01116 1-169 isoform P01116-2 G12D/C118A): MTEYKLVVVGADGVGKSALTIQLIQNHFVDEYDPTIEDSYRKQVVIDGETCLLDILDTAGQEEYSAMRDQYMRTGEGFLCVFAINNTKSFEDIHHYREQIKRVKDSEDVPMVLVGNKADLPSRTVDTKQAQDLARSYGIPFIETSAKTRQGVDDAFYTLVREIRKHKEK

Structure (SMILES)	IC50 [1] [nM]	Avg 2 h Coupled Exchange IC50 [2] [nM]	IC50 [3] [nM]	IC50 [4] [nM]
C#Cc1c(F)ccc2cc(O)cc(-c3ccc4c(N5C[C@H]6CC[C@@H](C5)N6)nc(OC[C@@]56CCCN5C[C@H](F)C6)nc4c3F)c12 [Example 186, 4-(4-((1R,5S)-3,8-diazabicyclo[3.2.1]octan-3-yl)-8-fluoro-2-(((2R,7aS)-2-fluorotetrahydro-1H-pyrrolizin-7a(5H)-yl)methoxy)quinazolin-7-yl)-5-ethynyl-6-fluoronaphthalen-2-ol]	3	3	1	5
Cc1c(Cl)cc2[nH]ncc2c1-c1c(Cl)cc2c(N3C[C@H]4CC[C@@H](C3)N4)nc(OC[C@@]34CCCN3C[C@H](F)C4)nc2c1F [Example 73, 4-((1R,5S)-3,8-diazabicyclo[3.2. 1]octan-3-yl)-6-chloro-7-(6-chloro-5-methyl-1H-indazol-4-yl)-8-fluoro-2-(((2R,7aS)-2-fluorotetrahydro-1H-pyrrolizin-7a(5H)-yl)methoxy) quinazoline]	15	17	422	715
CCc1c(F)ccc2cc(O)cc(-c3c(F)cc4c(N5CCC6CCC(C5)N6)nc(OC[C@@]56CCCN5C[C@H](F)C6)nc4c3F)c12 (stereo partly drawn) [Example 153, 4-(4-(3,9-diazabicyclo[4.2.1]nonan-3-yl)-6,8-difluoro-2-(((2R,7aS)-2-fluorotetrahydro-1H-pyrrolizin-7a(5H)-yl)methoxy)quinazolin-7-yl)-5-ethyl-6-fluoronaphthalen-2-ol]	6	3	349	419
Oc1cc(Cl)c(C2CC2)c(-c2c(F)cc3c(N4CC5CCC4CN5)nc(OC[C@@]45CCCN4C[C@H](F)C5)nc3c2F)c1 (stereo in doubt) [Example 143, 3-(4-((1R,4R)-2,5-diazabicyclo[2.2.2]octan-2-yl)-6,8-difluoro-2-(((2R,7aS)-2-fluorotetrahydro-1H-pyrrolizin-7a(5H)-yl)methoxy)quinazolin-7-yl)-5-chloro-4-cyclopropylphenol]	3	3	13	46
Oc1cc(-c2c(F)cc3c(N4[C@@H]5CNC[C@H]4COC5)nc(OC[C@@]45CCCN4C[C@H](F)C5)nc3c2F)c2ccccc2c1 [Example 14, 4-(4-((1R,5S)-3-oxa-7,9-diazabicyclo[3.3.1]nonan-9-yl)-6,8-difluoro-2-(((2R,7aS)-2-fluorotetrahydro-1H-pyrrolizin-7a(5H)-yl)methoxy)quinazolin-7-yl)naphthalen-2-ol]	9	8	274	762
CCc1c(F)ccc2cc(O)cc(-c3c(F)cc4c(N5C[C@H]6CCC[C@@H](C5)N6)nc(OC[C@@]56CCCN5C[C@H](F)C6)nc4c3F)c12 [Example 119, 4-(4-((1R,5S)-3,9-diazabicyclo[3.3.1]nonan-3-yl)-6,8-difluoro-2-(((2R,7aS)-2-fluorotetrahydro-1H-pyrrolizin-7a(5H)-yl)methoxy)quinazolin-7-yl)-5-ethyl-6-fluoronaphthalen-2-ol]	5	4	156	276
Oc1cc(-c2ccc3c(N4C[C@H]5CC[C@@H](C4)N5)nc(OC[C@@]45CCCN4C[C@H](F)C5)nc3c2F)c2ccccc2c1F [Example 221, 4-(4-((1R,5S)-3,8-diazabicyclo[3.2.1]octan-3-yl)-8-fluoro-2-(((2R,7aS)-2-fluorotetrahydro-1H-pyrrolizin-7a(5H)-yl)methoxy)quinazolin-7-yl)-1-fluoronaphthalen-2-ol]	1	1	139	325
Nc1cc(-c2c(F)cc3c(N4C[C@H]5CC[C@@H](C4)N5)nc(OC[C@@]45CCCN4C[C@H](F)C5)nc3c2F)c2ccccc2c1 [Example 116, 4-(4-((1R,5S)-3,8-diazabicyclo[3.2.1]octan-3-yl)-6,8-difluoro-2-(((2R,7aS)-2-fluorotetrahydro-1H-pyrrolizin-7a(5H)-yl)methoxy)quinazolin-7-yl)naphthalen-2-amine]	30	5	254	454
CCc1c(F)ccc2cc(O)cc(-c3ccc4c(N5C[C@@H]6CC[C@H]5CN6)nc(OC[C@@]56CCCN5C[C@H](F)C6)nc4c3)c12 [Example 112, 4-(4-((1S,4S)-2,5-diazabicyclo[2.2.2]octan-2-yl)-2-(((2R,7aS)-2-fluorotetrahydro-1H-pyrrolizin-7a(5H)-yl)methoxy)quinazolin-7-yl)-5-ethyl-6-fluoronaphthalen-2-ol]	2	2	37	90

Reference: patent US20250059205A1, “Heterocyclic Compounds and Methods of Use” (AMGEN INC., priority 2021, published 2025)
